Test results: PubChem BioAssay (NCI)
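At the GI50, growth is halved. TGI marks complete inhibition of growth.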

Experiments:
Assay in all cases: inhibition of tumour cell growth, NCI panel, 384-well format
CAKI-1 renal = test system: CAKI-1 renal
CCRF-CEM leukemia = test system: CCRF-CEM leukemia
DU-145 prostate = test system: DU-145 prostate
HCT-116 colon = test system: HCT-116 colon
HL-60(TB) leukemia = test system: HL-60(TB) leukemia
K-562 leukemia = test system: K-562 leukemia
LOX IMVI melanoma = test system: LOX IMVI melanoma
MALME-3M melanoma = test system: MALME-3M melanoma
MDA-MB-468 breast = test system: MDA-MB-468 breast
MOLT-4 leukemia = test system: MOLT-4 leukemia
OVCAR-8 ovarian = test system: OVCAR-8 ovarian
RPMI-8226 leukemia = test system: RPMI-8226 leukemia
SK-OV-3 ovarian = test system: SK-OV-3 ovarian
SW-620 colon = test system: SW-620 colon

CN(C)/N=N/c1nc[nH]c1C(N)=O
GI50 (CAKI-1 renal): 34.7 µM
GI50 (CCRF-CEM leukemia): 45.5 µM
GI50 (DU-145 prostate): 83.8 µM
GI50 (HCT-116 colon): 66.3 µM
GI50 (HL-60(TB) leukemia): 6.42 µM
GI50 (K-562 leukemia): 44.6 µM
GI50 (LOX IMVI melanoma): 29.2 µM
GI50 (MALME-3M melanoma): 79.5 µM
GI50 (MDA-MB-468 breast): 30.4 µM
GI50 (MOLT-4 leukemia): 6.9 µM
TGI (MOLT-4 leukemia): 21.7 µM
GI50 (OVCAR-8 ovarian): 69.9 µM
GI50 (RPMI-8226 leukemia): 18.3 µM
GI50 (SK-OV-3 ovarian): 95.3 µM
GI50 (SW-620 colon): 97.4 µM
